For this data set, the system named is fibrofatty residua (FFR) from an involuted infantile hemangioma. The format is in vivo, human. An excerpt: A child was referred for treatment of an involuted IH. They were concerned about the visual appearance and the feeling of fullness caused by the significant convexity of the tumor. […] Initial measurement was 0.8 cm high and 7.5 cm wide. Management options including surgical excision and laser treatments were discussed. The patient's parent was apprehensive regarding surgery due to the inherent risks of scarring, nerve damage, infection, bleeding, and tissue necrosis.
As an alternative to these options, the present inventors considered administering DCA to the patient to reduce the protuberance of the mass. The associated risks of DCA administration, as well as off-label use, and lack of pediatric approval were discussed with the patient. Two series of injections were planned.
The site was anesthetized with a topical 40% lidocaine ointment. Following prepping with alcohol, an injection grid modified to overlay the affected tissue was applied. Subsequently, 0.2 mL of DCA concentrated to 2 mg/cm^2 was injected at 1 cm intervals using a total of 4.4 mL, followed by the application of ice packs.
As planned, injections were repeated 3 months later, using an additional 4.2 mL. […] The FFR measured 0.2 cm high and 6.4 cm wide (FIG. 2A-2B). […] Some of the superifical vessels appeared to resolve completely (clinically go away/not visible after treatment) post treatment.

The values that follow come from US11554126B2, “Methods of treating residual lesions of vascular anomalies” (Georgetown University, priority 2017, dated 2023).

Take `C[C@H](CCC(=O)O)[C@H]1CC[C@H]2[C@@H]3CC[C@@H]4C[C@H](O)CC[C@]4(C)[C@H]3C[C@H](O)[C@]12C` [DCA, 3α,12α-dihydroxy-5β-cholan-24-oic acid]: the “improvement in visual appearance and degree of protrusion” value (after two series of intralesional DCA, two months after second injection) is reported as “significant improvement”. Further, for the setting “female, human, in vivo”, the “duration of moderate post-injection pain, erythema, bruising, and swelling” value lay in the range of 24 to 48 h. The “improvement after the first treatment” value (first series, 0.2 mL injections at 1 cm intervals, total 4.4 mL) is “marginal improvement”. In addition, under “in vivo”, the skin tension result is “either maintained or enhanced” and the “tolerability of the procedure” value is “tolerated the procedure well”. Moreover, the “visible superficial vessels and telangiectasias in the FFR” value (post treatment, some of the vessels, some appeared to resolve completely) was “decreased in size, caliber, and/or lightened in color”. Moreover, where the note is “right flank, after two series of intralesional DCA (4.4 mL, then 4.2 mL 3 months later), two months after second injection, baseline 0.8 cm”, the “FFR height, final measurement post-treatment” value is listed as 0.2 cm. Also, under “right flank, after two series of intralesional DCA (4.4 mL, then 4.2 mL 3 months later), two months after second injection, baseline 7.5 cm”, the “FFR width, final measurement post-treatment” value amounted to 6.4 cm.
